Reference: patent US4405642A, “Method for treatment or prophylaxis of cardiac disorders” (American Hospital Supply Corporation, priority 1980, dated 1983)
Where a name gives a salt, the structure may show the parent alone.

Assays:
[1] = tested on: heart rate response to isoproterenol; test: Duration of beta-blockade in vivo, anesthetized dogs, 3-hour infusion; settings: dog; for 80% Recovery Time: after termination of 3-hour infusion; for % I (Percent inhibition of heart rate response to isoproterenol): end of 3-hour infusion, bolus isoproterenol 0.5 μg/kg
Protocol: (§1) The duration of beta-blockade was determined in vivo using pentobarbitalanesthetized dogs instrumented for measurement of heart rate using a Beckman® cardiotachometer triggered electronically by a phasic aortic blood pressure signal. Both vagus nerves were severed in the cervical region and the animals were mechanically ventilated. Two experimental designs were used. The first employed a 40-minute infusion of test compound and the second used a 3-hour infusion of test compound. In the 40-minute model, isoproterenol was infused into a foreleg vein at the rate of 0.5 μg/kg/min to induce a beta-receptor mediated tachycardia. Various doses of test compound where then infused into a femoral vein over a period of 40 minutes. This infusion was then terminated and recovery from blockade was quantitated. […] This cumulative dose is expressed as mg/kg and is an indication of potency. The time period required for 80% recovery of heart rate for each dose of test drug was also measured to quantitate duration of action. […] Test compounds were dissolved in 0.9% NaCl and infused at a rate of 0.05 ml/kg/min or less. In the 3-hour infusion model, bolus doses of isoproterenol (0.5 μg/kg) were used to assess the degree of beta-blockade and recovery from beta-blockade after termination of the infusion. The doses were spaced at 10-minute intervals and were given before, during and following the infusion of test compounds. The infusion rate was adjusted so that at the end of the 3-hour infusion period the degree of isoproterenol inhibition averaged about 50% of control.

[2] = Disappearance in vitro in dog liver homogenate; assay type: in vitro ADME; settings: 50 μg test compound, 33% (w/v) liver homogenate, 37° C., read-out: T1/2 Dog Liver Homogenate
Protocol: (§2) The rate of disappearance of a compound is expressed as the half-life (T1/2), which is the time period in which one half of the initial amount of compound tested disappears. […] The samples were incubated in a Dubnoff shaking metabolic incubator for 2.5, 5.0, 10.0, 20.0, 30.0 and 60.0 minutes at 37° C. At the designated time periods, the test mixtures were removed from the incubator and transferred to a 0° C. ice bath. Acetonitrile (2 ml) was immediately added and the mixtures were mixed to stop enzymatic hydrolysis. Zero time samples were prepared by adding 2 ml. of acetonitrile to denature the proteins prior to addition of the test compounds. After centrifugation to sediment denatured proteins, 2 ml. of the supernatant was removed and analyzed by high pressure liquid chromatography, using a mobile phase of 60% acetonitrile/40% 0.05 m sodium phosphate buffer (pH 6.6), a U.V. detector and Waters® μ Bondapak Phenyl column. The half life of each test compound was determined graphically by plotting the decrease in concentration as a function of time.

[3] = target: T1, β-adrenergic receptors (guinea pig right atria) (Cavia porcellus, UniProt H0W3H1); test: β-blocking activity in vitro, guinea pig right atria (rate response to isoproterenol); assay type: cell-based; settings: vs isoproterenol, guinea pig right atria, 60 minute incubation, 37° C.; for Kb: read-out: pA2 Atria (converted)
T1 construct: Atria were allowed to beat spontaneously under a loading tension; from tissue; host or cells: guinea pig right atria (isolated, spontaneously beating)
Protocol: (§3) Each tissue was suspended between a fixed glass rod and a Statham® Universal Transducer connected to a Beckman® recorder. Atria were allowed to beat spontaneously under a loading tension of approximately 0.5 gm. Instrinsic depressant or stimulant activity was determined for each compound by progressively increasing concentrations in the tissue baths at 60-minute intervals. Tissues were not washed between increments. The maximum concentration showing little or no cardiodepressant activity was chosen for blockade experiments. Changes in rate in response to isoproterenol were measured in the absence and presence of test compounds. Spiral strips of guinea pig trachea were suspended under 5 gm resting tension and incubated with phentolamine, tropolone and cocaine. Active tension was generated by addition of carbachol (3.0×10^-7 M) and decreases in tension in response to isoproterenol were quantitated. Cumulative concentration-response curves were produced with isoproterenol both before and after 60 minute incubation of test compounds with atria and trachea. The blocking potency of test compounds was estimated by computing pA2 values (-log […]) by the method of Furchgott, The Pharmacological Differentiation of Adrenergic Receptors, Ann. […] The degree of cardioselectivity was estimated from the ratio, KB trachea/KB atria (10^(pA.sbsp.2^atria-pA.sbsp.2^trachea)). A ratio greater than one indicates cardioselectivity. Test drugs were dissolved in distilled water and added to the bath (30 ml) in a volume of 10 or 100 μl.

[4] = Disappearance in vitro in human whole blood; assay type: in vitro ADME; settings: 50 μg test compound, 37° C., read-out: T1/2 Human Whole Blood
Protocol: as §2

[5] = Disappearance in vitro in dog whole blood; assay type: in vitro ADME; settings: 50 μg test compound, 37° C., read-out: T1/2 Dog Whole Blood
Protocol: as §2

[6] = tested on: heart rate response to isoproterenol; test: Duration of beta-blockade in vivo, anesthetized dogs, 40-minute infusion; design: species or system dog; settings: for Recovery Times 50%: 50% recovery of heart rate after 40-minute infusion; for Recovery Times 50% / Recovery Times 80% / Recovery Times 100%: normalized to 50% inhibition, dog; for Recovery Times 80%: 80% recovery of heart rate after 40-minute infusion; for Recovery Times 100%: 100% recovery of heart rate after 40-minute infusion; for ED50: Canis lupus familiaris, iv, 40 min, read-out: Potency
Protocol: as §1

[7] = target: T2, β-adrenergic receptors (guinea pig tracheal strips) (Cavia porcellus, UniProt Q8K4Z4); test: β-blocking activity in vitro, guinea pig tracheal strips (tension response to isoproterenol); assay type: cell-based; settings: vs isoproterenol, 60 minute incubation, 37° C.; for Kb: read-out: pA2 Trachea (converted)
T2 construct: from tissue; host or cells: guinea pig trachea (isolated spiral strips)
Protocol: as §3

[8] = tested on: β-adrenergic receptors (guinea pig right atria); test: β-blocking activity in vitro, guinea pig right atria (rate response to isoproterenol); assay type: cell-based; settings: ratio from pA2 atria and trachea; greater than one indicates cardioselectivity
Protocol: as §3

T2 sequence (Q8K4Z4 whole entry): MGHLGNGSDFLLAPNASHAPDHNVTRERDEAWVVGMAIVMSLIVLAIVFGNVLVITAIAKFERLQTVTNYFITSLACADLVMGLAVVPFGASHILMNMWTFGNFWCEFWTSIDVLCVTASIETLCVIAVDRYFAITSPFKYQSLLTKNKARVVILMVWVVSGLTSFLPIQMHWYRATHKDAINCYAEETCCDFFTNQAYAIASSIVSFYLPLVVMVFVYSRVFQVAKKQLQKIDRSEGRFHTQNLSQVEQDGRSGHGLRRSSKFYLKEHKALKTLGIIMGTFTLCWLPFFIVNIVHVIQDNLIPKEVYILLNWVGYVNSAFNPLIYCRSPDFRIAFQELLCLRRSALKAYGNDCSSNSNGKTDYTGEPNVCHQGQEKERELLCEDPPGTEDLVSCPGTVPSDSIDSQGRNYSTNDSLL
T1 sequence (H0W3H1 1-470): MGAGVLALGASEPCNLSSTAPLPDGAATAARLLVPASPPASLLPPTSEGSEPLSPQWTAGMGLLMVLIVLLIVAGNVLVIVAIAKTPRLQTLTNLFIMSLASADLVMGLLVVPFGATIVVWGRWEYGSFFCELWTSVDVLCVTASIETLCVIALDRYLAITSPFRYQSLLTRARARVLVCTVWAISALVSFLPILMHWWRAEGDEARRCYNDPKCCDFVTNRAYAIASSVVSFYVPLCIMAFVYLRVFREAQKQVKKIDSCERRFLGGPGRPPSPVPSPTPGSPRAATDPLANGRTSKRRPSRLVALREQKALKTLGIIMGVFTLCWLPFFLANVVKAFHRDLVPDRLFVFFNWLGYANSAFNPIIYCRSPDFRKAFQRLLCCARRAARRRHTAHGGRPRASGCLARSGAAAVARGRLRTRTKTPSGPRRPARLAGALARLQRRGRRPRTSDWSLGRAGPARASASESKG

Compound	80% Recovery Time [1] [min]	% I (Percent inhibition of heart rate response to isoproterenol) [1] [%]	half-life [2] [min]	pA2 Atria [3]	half-life [4] [min]	half-life [5] [min]	Recovery Times 50% [6] [min]	Recovery Times 80% [6] [min]	Recovery Times 100% [6] [min]	ED50 [6] [mg/kg]	pA2 Trachea [7]	Kb [3] [nM]	Cardioselectivity KB (Trachea)/KB (Atria) [8]	Kb [7] [nM]
CC(C)NCC(O)COC(=O)c1ccccc1 (stereo not drawn) [Example VI, [3-(Isopropylamino)-2-hydroxy]propyl Benzoate Hydrochloride]	26 ± 8	63 ± 8	8 ± 3.5	6.3	2.3 ± 0.6	6.8 ± 2	7 ± 2	14 ± 3	21 ± 3	3.4 ± 1.1	7.2	–	–	–
CC(C)NCC(O)COC(=O)c1ccccc1Cl (stereo not drawn) [Example XII, [3-(Isopropylamino)-2-hydroxy]propyl 2-chlorobenzoate hydrochloride]	–	–	12 ± 4	–	1.7 ± 0.6	28 ± 15	19	30	51	1.75	–	–	–	–
Cc1ccc(C(=O)OCC(O)CNC(C)C)cc1 (stereo not drawn) [Example X]	–	–	10 ± 4	–	6	67 ± 24	11.0	20 ± 2	30.0	3.1 ± 0.3	–	158	1	158
Cc1ccccc1C(=O)OCC(O)CNC(C)C (stereo not drawn) [XVII]	> 60	83	147 ± 69	–	> 180	> 180	–	–	–	–	–	–	–	–
COc1ccc(C(=O)OCC(O)CNC(C)C)cc1 (stereo not drawn) [XXIII]	> 60	67 ± 6	37 ± 20	–	55 ± 5	150 ± 30	–	–	–	–	–	1000	–	501
CC(C)(C)NCC(O)COC(=O)c1ccccc1F (stereo not drawn) [XXXIX]	17 ± 3	60 ± 2	17 ± 7	–	1.4 ± 1	6 ± 2	–	–	–	–	–	158	–	10
CC(C)(C)NCC(O)COC(=O)c1ccccc1Cl (stereo not drawn) [XXXVIII]	–	67	68 ± 4	–	6 ± 2	30 ± 2	–	–	–	–	–	–	–	–
